System: green peach aphids (Myzus persicae)
Experiment: Pesticidal activity against green peach aphid on cabbage plants after soil treatment
Assay type: in vivo
Details: for % Control at DAT of 21 days: Table 6; for % Control at DAT of 21 days / % Control at DAT of 28 days: GEROPON SDS 384 ppm
Experimental: Each tested compositions was prepared by mixing a predetermined amount of the CLOSER® SC insecticide (a sulfoxaflor concentrate having a sulfoxaflor concentration of 240 g/L) with a predetermined amount of sodium dioctylsulfosuccinate GEROPON® SDS anionic surfactant in an aqueous medium.
The compositions containing different amounts of sulfoxaflor and sodium dioctylsulfosuccinate GEROPON® SDS surfactant were prepared as shown in TABLE 4. For example, the “Sulfoxaflor at 100 ppm” composition contained about 0.043% weight of sulfoxaflor based on the total weight of the composition (i.e., 100 ppm of sulfoxaflor per one gram of final soil mixture). “Sulfoxaflor at 100 ppm+GEROPON®” composition contained about 0.043% weight of sulfoxaflor based on the total weight of the composition (i.e., 100 ppm of sulfoxaflor per one gram of final soil mixture), and about 0.225% weight of sodium dioctylsulfosuccinate GEROPON® SDS surfactant based on the total weight of the composition (i.e., 384 ppm per one gram of the final soil mixture; 1500 ppm per one gram of the total soil liquid).
The imidacloprid pesticide PROVADO® 1.6 from Bayer CropScience LP (North Carolina, USA) was used as a standard commercial pesticidal composition for aphid control. The imidacloprid pesticide PROVADO® 1.6 was tested at three different loadings: 100 ppm, 25 ppm, and 6.25 ppm per gram of final soil mixture. In this EXAMPLE 6, water was tested as a control composition. Furthermore, an aqueous solution of sodium dioctylsulfosuccinate GEROPON® SDS anionic surfactant was tested.
Cabbage plants (Brassica oleracea capitata L) of uniform size (two new leaf stage) infested with green peach aphids (Myzus persicae) (“GPA”) were used as the study models according to the following procedure:
Cabbage seeds were planted in 3-inch pots containing a peat-based METRO MIX 360® potting soil available from SUN GRO® Horticulture Canada, Ltd. The seeds were propagated in greenhouse zone G4, located in the R&D building of Dow AgroSciences (Indianapolis, Ind., USA), at 26° C. with a relative humidity of 53%. Natural light was supplemented with 1,000-watt metal halide overhead lamps with an average illumination of about 500 μE/m^2·s photosynthetic active radiation for 16 consecutive hours each day.
Each of the 1-ounce clear cups was filled with about 30 grams of the inoculated Midwest field soil having the components as shown in TABLE 5. […] The soil moisture of the Midwest field soil was about 15% as measured by Mettler LJ16 Moisture Analyzer (15 minutes and 100° C.).
The Midwest field soil in each selected 1-ounce cup was treated with about 9 mL of the selected composition using a 10 mL pipette. Deionized water was used as a control. The remainders of the 1-ounce cups were capped, and a small hole was poked into each lid to provide air flow. The remainders of the 1-ounce cups were stored in a controlled environment at 26° C. and covered with a black plastic bag to prevent any light from entering, until being used for the test.
Cabbage plants were gently removed from the 3-inch pots, and the plant roots were washed with water to remove any excess soil. Then, the cabbage plant was transplanted into the 1-ounce cup containing the treated Midwest field soil (one cabbage plant per one 1-ounce cup). The plants were watered as needed after being transplanted.
At the selected number of days after treating the Midwest field soil with the composition (i.e., numbers of days after the soil treatment, “DAT”), the cabbage plant in each 1-ounce cup was infested with GPA by placing a piece of squash leaf infested with about 25 aphids on each cabbage plant. The plants were then placed in a controlled environment at 26° C. for three days.
Five different evaluation times were performed: DAT of 0, 7, 14, 21, or 28 days. For example, for the DAT of zero (0) day, the cabbage plant was infested with GPA on the same day that it was transplanted into the treated Midwest field soil. […]

[1] = dose rate: sulfoxaflor 6.25 ppm, combination 6.25 + 384 ppm
[2] = Table 7, dose rate: sulfoxaflor 6.25 ppm, combination 6.25 + 384 ppm
[3] = Table 8, dose rate: sulfoxaflor 25 ppm, combination 25 + 384 ppm

Row | SMILES | % Control at DAT of 21 days [1] [%] | % Control at DAT of 28 days [2] [%] | % Control at DAT of 28 days [3] [%] | number of live GPA aphids at DAT of 21 days (FIG. 6, cabbage in treated Midwest soil, counted three days after infestation, loading as named in the composition)
1 | C[C@@H](c1ccc(C(F)(F)F)nc1)[S@](C)(=O)=NC#N (racemic) [Sulfoxaflor, [methyl(oxo) {1-[6-(trifluoromethyl)-3-pyridyl]ethyl}-λ^6-sulfanylidene]cyanamide, reference compound] | 0 | 0 | 36.39 | 
2 | CCCCCCCCOC(=O)CC(C(=O)OCCCCCCCC)S(=O)(=O)O.[Na] (stereo not shown) [GEROPON ® SDS Surfactant, Sodium dioctyl sulfosuccinate] | 0 | 0 | 0 | 30 to 40
